Laboratory results as given in patent US20030186943A1, “Substituted gamma-phenyl-delta-lactams and uses related thereto” (Inflazyme Pharmaceuticals Ltd., priority 1998, published 2003).
One block for each compound: values may come before it.

Experiments:
[1] = system: High Affinity Rolipram Binding Site of PDE4 in Mouse Brain; assay: Displacement of [3H]-rolipram from its high affinity binding site (HARBS); conditions: ratio of IC50 for PDE4 catalytic activity to concentration displacing 50% of rolipram from HARBS
Procedure: Suspension was centrifuged twice at 30,000×G at 4° C. and the supernatant discarded. The pellet was resuspended in buffer, and adjusted to a protein concentration of 0.5 mg/mL. Drugs to be tested were dissolved in DMSO and pipetted in triplicate into a 96 well microplate at concentrations ranging from 1 to 30,000 nM. […] The plate was incubated at 4° C. for 1 hour. Contents of the plate were aspirated through a Whatman GF/C filterplate, and rinsed with 4×200 μL ice-cold buffer. […] Triplicate determinations were performed at each concentration.

[2] = system: K562 chronic myelogenous leukemia cells; assay: Anti-proliferative activity in K562 cells (3H-thymidine uptake); format: cell-based, human
Procedure: 90 μL K562 cells (human chronic myelogenous leukemia cells) were seeded into sterile 96-well assay plates at a density of 1×10^5 cells/mL in RPMI 1640 supplemented with 10% FBS/2 mM L-glutamine. Samples to be tested were prepared in a sterile 96-well assay plate at 10×the final concentration desired. All sample dilutions contained equal amounts of DMSO to compensate for the % DMSO in the highest sample concentration used. Nine concentrations of test compound were examined for effects on growth up to a maximal concentration of 100 μM. 10 μL of the samples and controls (DMSO/normal growth control) were added to the aliquoted cells. The cells were incubated at 37° C./5% CO2 for 48 hours. Following 48 hour incubation, 20 μL of 3H-thymidine was added to each well for a final concentration of 1 μCi/mL. The cells were then incubated at 37° C./5% CO2 for 4 to 6 hours. Following 4-6 hour thymidine pulse, plates were wrapped in plastic and frozen in a −20° C. frost-free freezer overnight. Cells were harvested and ^3H-thymidine counts determined. In order to distinguish between cytotoxicity and cytostatic activity, growth curves were prepared where the average CPM value of the seeding density of cells was plotted on the same curve as the average CPM value for the maximum proliferation attained after 48 hours (DMSO growth control cells). The cells were diluted 1:2 for a concentration range of 7.8×10^3 cells/mL to 2×10^6 cells/mL. 90 μL of each cell dilution was seeded in sterile 96-well assay plated and allowed to equilibrate for approximately 4 hours at 37° C./5% CO2 prior to ^3H-thymidine pulse. The data in Table 15 was obtained as described above, and more specifically, K562 cells were seeded into 96-well plates at 1×10^5 cells/mL in RPMI 1640 supplemented with 10% FBS/2 mM L-glutamine. Various concentrations of test compound or vehicle (DMSO) was added and the cells were incubated at 37° C./5 CO2 for 48 hours. The cells were then pulsed at 37° C./5% CO2 for 4 to 6 hours with 1 μCi/mL ^3H-thymidine. Radioactivity incorporated into DNA was determined after harvesting onto glass fiber filters and scintillation counting.

[3] = system: primary human neutrophils; assay: Generation of reactive oxygen species by fMLP-activated neutrophils (luminol-enhanced chemiluminescence); format: cell-based; conditions: Neutrophil, ROS production, X marks this range, read-out: IC50 RANGE (μM) 1-10
From the text: Neutrophil activation can be measured by quantitation of ROS generated in vitro. Measurement of ROS allows specific quantitation of a pro-inflammatory species and is also a general measure of neutrophil activation. The most sensitive method for measuring the production of ROS by neutrophils is luminol-enhanced chemiluminescence. […] The assay system used to evaluate the ability of compounds to inhibit ROS generation in neutrophils is indicative of anti-inflammatory activity that may be efficacious in disease states including but not limited to rheumatoid arthritis and inflammatory bowel disease.
Freshly isolated primary human neutrophils (5×10^6 cells/mL) were incubated with the required concentrations of compound or vehicle for 30 minutes at 37° C. in HBSS buffer (pH 7.4) containing Ca^2+. 100 nM wortmannin was used as a positive control. Aliquots of each sample were transferred to a microtitre plate to which luminol (1 μM); obtained from Sigma; Catalogue No. A8511 is added. Activation of the neutrophils was immediately initiated by addition of (1 μM) fMLP; obtained from Sigma, Catalogue No. F3506. Light output from each well was recorded for 30 minutes in a microplate luminometer. Total light output (integral of the time-course) was determined for each well. Inhibitory activities of test drugs against neutrophil ROS generation is expressed as percentage activity relative to a no drug control (100% activation or generation of ROS) containing 0.25% DMSO. Concentration of test compound required to inhibit the generation of ROS to 50% of control values (IC50's) were determined from concentration-response curves by non-linear regression analysis.

[4] = system: primary human neutrophils; assay: fMLP-induced human neutrophil chemotaxis; format: cell-based; conditions: fMLP-induced chemotaxis, X marks this range, read-out: IC50 RANGE (μM) 1-10
Procedure: Chemotaxis buffer containing the chemoattractant fMLP (10 μM) was added to each well of a chemotaxis plate and a filter was inserted ensuring contact between the filter and the chemotaxis buffer in the well. A submaximal concentration of chemoattractant was used which had been determined in previous experiments. […] Freshly isolated neutrophils (1×10^6) were incubated with vehicle (0.125% DMSO)±test compound for 1 hr at 37° C. Treatment and control cell suspensions were then gently resuspended and 20 μL of cells was added to the top side of the filter on each well. The plate was incubated for 1.5 hours at 37° C. under 5% CO2. Cells were then removed from the top side of the filter by aspiration and the entire plate was centrifuged. The filter was removed and known concentrations of cells were added to unused wells to prepare a standard curve. XTT (Sigma; Catalogue No. X 4251)/PMS (Sigma; Catalogue No. P 7626) solution prepared in buffer was added to each well and the cells were further incubated 1-2 hours and measured for absorbance at 450 nm. Absorbance values were converted to cell numbers using the standard curve. IC50 values are averages from at least three separate experiments with triplicate determinations.

[5] = system: Resiniferitoxin-induced mouse ear edema; assay: Resiniferitoxin-induced mouse ear edema; format: in vivo; conditions: Mus musculus; topical administration, 50 μg/ear, RTX 0.1 μg/ear, CD1 mice
From the text: One of the primary characteristics of inflammation is an increase in vascular dilation and permeability leading to the extravasation of, and collection of fluids in, the interstitium, resulting in redness and swelling. Rheumatoid arthritis in particular is characterized by pronounced edema of affected joints resulting in significant pain and stiffness. The mouse ear inflammation model is a standard in vivo assay for inflammation that is based on an increase in ear weight which is attributable to edema induced by inflammatory mediators. RTX (resiniferitoxin; Sigma; Catalogue No. R 8756)) is a diterpene isolated from the plant Euphorbia poisonii and is an ultrapotent analog of capsaicin. RTX acts by selectively stimulating nociceptive and thermal-sensitive nerve ending in tissue, eliciting neurogenic edema. Compounds of the present invention, whether administered topically, intraperitoneally or orally, inhibited development of edema induced by topical application of RTX.
Mice (CD1, Charles River Laboratories) were separated into groups (n—5−8) and tagged. Control mice had RTX (0.1 μg/ear) applied topically to the inner and outer sides of the left ear and vehicle applied to the right ear as a control. For topical administration, experimental/treatment mice received RTX+test compound solution (50 μg/ear) on the left ear and acetone on the right ear. For intraperitoneal (i.p.) administration, 100 mg/kg test compound dissolved in 100 μL PEG 200:saline (1:1) was injected followed by a 30 minute waiting period then the standard 30 minute RTX edema induction. For oral (p.o.) administration, 10 mg/kg test compound in 100 μL PEG-200 was given to animals, then edema induced using 0.1 μg/ear RTX after a 1.5 hour waiting period. After edema induction, mice were sacrificed, and a standard disc of ear tissue was removed. Each disk of tissue was immediately weighed to the nearest 1/10th of a mg. Data were analyzed by taking the difference of each left ear from the right ear, calculating the mean+/−SEM. Statistical significance was tested by 2-sample t-test on the left/right ear weight differences of the control group vs. the experimental group.

[6] = target: T1, cAMP phosphodiesterase 3 from human platelets (Homo sapiens, UniProt Q14432); assay: Inhibition of cAMP phosphodiesterase 3 from human platelets; format: biochemical; conditions: PDE3, platelet cell extract; X marks this range
T1 construct: from tissue; host or cells: human platelets, cytoplasmic extract
T1 sequence (Q14432 whole entry): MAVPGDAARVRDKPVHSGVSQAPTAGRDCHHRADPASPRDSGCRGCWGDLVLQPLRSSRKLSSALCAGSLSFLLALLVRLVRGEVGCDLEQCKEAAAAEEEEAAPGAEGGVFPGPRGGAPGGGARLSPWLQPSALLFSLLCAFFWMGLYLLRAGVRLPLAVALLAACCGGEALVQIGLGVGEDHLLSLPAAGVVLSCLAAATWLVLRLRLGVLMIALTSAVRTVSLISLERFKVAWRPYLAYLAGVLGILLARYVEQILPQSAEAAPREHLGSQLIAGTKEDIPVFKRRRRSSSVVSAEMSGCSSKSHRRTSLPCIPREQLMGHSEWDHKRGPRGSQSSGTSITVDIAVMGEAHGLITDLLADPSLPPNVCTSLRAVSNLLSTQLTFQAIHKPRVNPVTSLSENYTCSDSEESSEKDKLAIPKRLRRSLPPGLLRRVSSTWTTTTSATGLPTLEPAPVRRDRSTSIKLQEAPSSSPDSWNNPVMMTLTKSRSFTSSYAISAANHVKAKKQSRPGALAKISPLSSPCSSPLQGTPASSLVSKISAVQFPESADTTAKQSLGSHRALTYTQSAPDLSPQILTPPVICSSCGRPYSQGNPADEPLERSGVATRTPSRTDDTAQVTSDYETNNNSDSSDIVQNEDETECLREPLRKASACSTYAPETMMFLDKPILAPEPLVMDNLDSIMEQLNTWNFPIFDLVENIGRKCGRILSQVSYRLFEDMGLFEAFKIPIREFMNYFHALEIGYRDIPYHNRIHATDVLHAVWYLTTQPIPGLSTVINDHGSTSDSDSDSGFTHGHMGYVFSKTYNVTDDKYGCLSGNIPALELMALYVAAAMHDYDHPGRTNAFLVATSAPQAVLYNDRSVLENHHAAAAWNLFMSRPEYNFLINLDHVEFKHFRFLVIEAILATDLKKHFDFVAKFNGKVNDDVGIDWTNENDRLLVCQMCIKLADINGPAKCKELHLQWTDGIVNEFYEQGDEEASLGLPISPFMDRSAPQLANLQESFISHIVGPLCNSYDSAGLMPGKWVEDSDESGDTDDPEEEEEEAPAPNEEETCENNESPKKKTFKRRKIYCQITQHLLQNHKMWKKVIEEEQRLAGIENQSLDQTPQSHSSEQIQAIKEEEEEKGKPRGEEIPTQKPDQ
From the text: Compound 12 was screened for activity against 5 of the major classes of mammalian cyclic nucleotide phosphodiesterase (termed PDE 1 through 5). PDE's 1 through 4 utilize cAMP as substrate while PDE 5 uses cGMP. The broad specificity PDE inhibitor 3-isobutyl-1-methylxanthine (IBMX; Sigma; Catalogue No. 17018)) was used as a positive control in all assays. PDE's for the various assays were partially purified from the following cells/tissues; PDE 1 (bovine heart), PDE 2 (human platelets), PDE 3 (human platelets), PDE 4 (human promonocytic U937 cells) and PDE 5 (human platelets).
Platelet cell extracts were prepared as described above for the U937 cells. The PDE3 assay was performed using platelet cell extract as described above for the PDE 4 assay. Platelets contain PDE 2, 3 and 5. However PDE2 and 5 preferentially utilize cGMP, so in an assay with cAMP as a substrate they are not detected.

[7] = system: cAMP response element luciferase activity in human U937 monocytic cells; assay: Potentiation of forskolin-induced CRE-luciferase activity in U937 cells; format: cell-based; conditions: U-937, U937 cells co-incubated with 10 μM forskolin, 4 hours, X marks this range, read-out: EC50 range (μM) 1-25
Procedure: Compounds of the present invention were thereby shown to provide potentiated luciferase expression in U937 cells treated with the adenylyl cyclase activator forskolin.
Human pro-monocytic U937 cells were maintained in RPMI medium containing 10% FCS and 2 mM […]. U937 cells were transiently transfected as described in Biotechniques Vol. 17(6):1058, 1994. Briefly, cells were grown in medium containing serum to a density of 5×10^6 cells/mL and then resuspended in media containing serum at a density of approximately 1×10^7 cells/mL. 400 μL of cells were transferred into the electroporation cuvette containing 10 μg of the reporter vector (PCRE-luc) in a volume of 40 μL H2O. Reporter vector DNA was prepared from DH5α E. coli using the DNA […] free kit (Qiagen) as per manufacturers instructions. U937 cells were clectroporated at room temperature using a BIORAD electroporator. Capacitance was set to 1050 μF and voltage was 280V. The time constant was noted after each electroporation. Cells were then diluted in 4 mL of media and serum and 200 μL of cells were plated per well. Cells were allowed to recover for 16-18 hours. Cells were then treated with a test compound or vehicle in the presence or absence of 10 μM forskolin for 4 hours at 37° C.
The luciferase assay was performed as per manufacturers instructions (Tropix). Briefly, cells were centrifuged for 4 minutes at 1200 rpm and media supernatant was removed. Cell pellets were lysed in 15 μL Lysis buffer (Tropix). Luciferase assay was performed using 10 μL of cell lysate with 10 μL of buffer A and 25 μL buffer B. Luciferase activity was obtained using a luminometer with a 5-second delay followed by a read time of 10 seconds.

PDE4:HARBS [1]: <1
Compound: COc1ccc([C@H]2COC(=O)C(Cc3ccc(O)c(O)c3)C2)cc1OC1CCCC1 (some centres unmarked) [Compound 179]
effect on proliferative ability / cell cycle of K-562 cells [2]: cell cycle arrest

Compound: COc1ccc([C@@H]2CCC(=O)OC2)cc1OC [Compound 21]
IC50 [3]: 1 to 10 µM | IC50 [4]: 1 to 10 µM | inhibition in vivo at 50 µg/ear [5]: 32% | IC50 [6]: > 100 µM | PDE4:HARBS [1]: <1 | EC50 [7]: 1 to 25 µM
